Experimental findings from PMC6482412, “Studies on spiro[4.5]decanone prolyl hydroxylase domain inhibitors” (MedChemComm, 2019) are described below.

Format in all cases: biochemical
The target of test [1] is T1, tPHD2 (PHD2 181-426) with HIF-1α CODD (Homo sapiens, UniProt Q9GZT9).
T1 construct: catalytic domain of truncated PHD2 (tPHD2, residues 181–426); His6 (N, cleaved yes); made in house; host or cells: E. coli BL21 DE3
Briefly: RapidFire-MS PHD2 hydroxylation assay, HIF-1α CODD peptide substrate. The settings on record: for tPHD2 inhibition (in words): tPHD2, HIF-1α CODD substrate. The procedure: (§1) 11–16 were then assayed using mass spectrometry (MS) for inhibition of the catalytic domain of truncated PHD2 (tPHD2, residues 181–426) and (in selected cases) PHD3, employing either human HIF-1α CODD or NODD peptide sequences (Table 1).
(§2) Supplementary Information
(§3) RapidFire-MS PHD2 hydroxylation assays
(§4) Inhibition of PHD2 enzyme activity was assessed by mass spectrometry. The enzyme assay monitors tPHD2181-426 catalysed turnover of a C-terminal oxygenase […]
(§5) C-terminal amide) and appearance of the hydroxylated peptide product
(§6) (hydroxylation of proline 564) with a typical incubation time of 15 minutes.2 Assays were performed in 50 mM Tris.Cl pH 7.8, 50 mM NaCl, titrations of compounds for […]
(§7) ECHO 550 acoustic dispenser (Labcyte) and dry dispensed into 384-well polypropylene assay plates. The final assay concentration of DMSO was kept constant at 0.5% (v/v). tPHD2181-426 was at a concentration of 300 nM in the assay buffer (20 μM ferrous iron sulfate, 200 μM L-ascorbic acid, 10 μM CODD or NODD peptide and 20 μM 2-oxoglutarate) and 25 μl was dispensed across each 384-well assay plate. tPHD2181-426 was allowed to equilibrate with compounds for 15 minutes; the reaction was then initiated by addition of 25 μl of substrate.2 Enzyme reactions were allowed to proceed for 15 minutes and the reaction terminated by addition of 10% (v/v) formic acid (5 μl). Assay plates were then transferred to a RapidFire RF360 sampling robot (Agilent) connected to an Agilent 6530 quadrupole-time-of-flight (Q-TOF) mass spectrometer. Assay samples were aspirated under vacuum and loaded onto a C4 solid phase extraction (SPE) cartridge. After loading, the C4 SPE cartridge was washed with 0.1 % (v/v) formic acid in water to remove non-volatile buffer salts.
(§8) The peptide was then eluted from the SPE with 85% acetonitrile, 15% water containing 0.1% (v/v) formic acid into the mass spectrometer. Peptide charge states were monitored in the positive ion mode. Ion chromatogram data were extracted for […]
(§9) the +2 charge state and peak area data integrated using RapidFire Integrator software (Agilent). The % conversion of the CODD peptide substrate to the +16 hydroxylated peptide was calculated using the equation: […]
(§10) data were determined from non-linear regression plots using GraphPad prism 6.0.
(§11) All data were normalized to a no enzyme control.2

For test [2], the target named is T2, tPHD2 (PHD2 181-426) with HIF-1α NODD (Homo sapiens, UniProt Q9GZT9).
T2 construct: catalytic domain of truncated PHD2 (tPHD2, residues 181–426); His6 (N, cleaved yes); made in house; host or cells: E. coli BL21 DE3
The test is described as follows: RapidFire-MS PHD2 hydroxylation assay, HIF-1α NODD peptide substrate. How it is done: as §1, §2, §3, §4, §5, §6, §7, §8, §9, §10, §11

For test [3], the target named is T3, KDM4A (Homo sapiens, UniProt O75164).
T3 sequence (O75164 1-1064): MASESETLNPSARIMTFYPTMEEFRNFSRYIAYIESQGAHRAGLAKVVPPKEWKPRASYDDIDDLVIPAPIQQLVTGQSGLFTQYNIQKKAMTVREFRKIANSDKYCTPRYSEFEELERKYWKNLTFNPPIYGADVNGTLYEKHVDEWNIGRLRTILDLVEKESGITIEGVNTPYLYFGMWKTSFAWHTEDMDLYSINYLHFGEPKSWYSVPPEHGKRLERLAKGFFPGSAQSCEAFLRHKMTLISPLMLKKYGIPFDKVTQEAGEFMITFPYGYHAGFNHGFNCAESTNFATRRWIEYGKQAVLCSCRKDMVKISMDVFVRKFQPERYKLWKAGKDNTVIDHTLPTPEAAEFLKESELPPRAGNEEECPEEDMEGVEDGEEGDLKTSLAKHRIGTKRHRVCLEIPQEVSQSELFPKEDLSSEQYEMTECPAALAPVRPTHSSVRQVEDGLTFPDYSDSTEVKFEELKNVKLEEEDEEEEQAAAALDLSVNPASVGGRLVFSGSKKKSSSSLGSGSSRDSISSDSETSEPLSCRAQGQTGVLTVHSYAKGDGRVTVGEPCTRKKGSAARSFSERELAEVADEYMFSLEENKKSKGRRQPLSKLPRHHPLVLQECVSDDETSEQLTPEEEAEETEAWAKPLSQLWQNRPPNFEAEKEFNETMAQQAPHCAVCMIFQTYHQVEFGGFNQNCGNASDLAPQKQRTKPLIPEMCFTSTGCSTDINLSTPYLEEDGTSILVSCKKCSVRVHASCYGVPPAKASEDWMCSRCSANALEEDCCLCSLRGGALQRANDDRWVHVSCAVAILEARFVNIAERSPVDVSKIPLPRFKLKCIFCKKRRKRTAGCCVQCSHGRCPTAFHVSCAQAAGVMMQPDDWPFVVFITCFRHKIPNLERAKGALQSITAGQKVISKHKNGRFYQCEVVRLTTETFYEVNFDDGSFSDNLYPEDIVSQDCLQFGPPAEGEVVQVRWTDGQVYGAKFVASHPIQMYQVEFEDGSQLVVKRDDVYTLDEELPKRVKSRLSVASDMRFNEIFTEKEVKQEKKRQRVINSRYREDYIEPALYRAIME
The test is described as follows: KDM4A selectivity assay with H3(1-15) K9Me3, RapidFire-MS. The settings on record: isolated KDM4A, Table S2.
From the text: (§12) We carried out initial studies on the selectivity of the spiro[4.5]decanone series.
as §2
(§13) Table S2: Studies on the selectivity of spiro[4.5]decanone containing inhibitors.
(§14) Compounds were screened against FIH with the HIF-1α CAD peptide D788 - L822 and
(§15) KDM4A with H3(1 - 15) K9Me3. Both assays employed the RapidFire-MS sampling
(§16) machine. See Experimental Methods for details. 2 […]

In test [4] the target is PHD3 (Homo sapiens, UniProt Q9H6Z9). Briefly: PHD3 catalysed HIF-1α CODD hydroxylation, RapidFire mass spectrometry. The procedure: as §1, §12
Test [5] concerns the target factor inhibiting HIF (FIH) (Homo sapiens, UniProt Q9NWT6). The test is described as follows: FIH selectivity assay with HIF-1α CAD peptide D788-L822, RapidFire-MS. As to conditions: isolated FIH, Table S2.
From the text: as §12, §2, §13, §14, §15, §16

[6] abbreviates: tPHD2 181-426, HIF-1α CODD peptide, RapidFire MS, standard error of the mean (n = 3), read-out: PHD2 with HIF1-α CODD IC50.
Setting [7] is: tPHD2 181-426, HIF-1α NODD peptide, RapidFire MS, standard error of the mean (n = 3), read-out: PHD2 with HIF1-α NODD IC50.

Like-named read-outs stand apart in the source and are kept apart here.

T2 sequence (Q9GZT9 181-426): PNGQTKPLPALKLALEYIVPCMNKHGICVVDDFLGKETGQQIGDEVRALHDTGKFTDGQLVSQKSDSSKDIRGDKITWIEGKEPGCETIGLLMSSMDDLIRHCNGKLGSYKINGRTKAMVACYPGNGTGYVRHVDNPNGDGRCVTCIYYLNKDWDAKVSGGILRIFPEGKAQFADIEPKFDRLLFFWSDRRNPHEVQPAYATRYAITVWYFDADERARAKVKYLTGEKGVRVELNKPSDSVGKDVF
T1 sequence (Q9GZT9 181-426): as above
PHD3, sequence (Q9H6Z9 whole entry): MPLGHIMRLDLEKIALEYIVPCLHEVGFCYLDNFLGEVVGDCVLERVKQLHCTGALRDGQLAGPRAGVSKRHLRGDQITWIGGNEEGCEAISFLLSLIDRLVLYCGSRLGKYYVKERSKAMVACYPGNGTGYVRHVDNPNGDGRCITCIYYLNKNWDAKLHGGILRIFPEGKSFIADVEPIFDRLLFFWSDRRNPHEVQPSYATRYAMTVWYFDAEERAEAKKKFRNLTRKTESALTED
factor inhibiting HIF (FIH), sequence (Q9NWT6 whole entry): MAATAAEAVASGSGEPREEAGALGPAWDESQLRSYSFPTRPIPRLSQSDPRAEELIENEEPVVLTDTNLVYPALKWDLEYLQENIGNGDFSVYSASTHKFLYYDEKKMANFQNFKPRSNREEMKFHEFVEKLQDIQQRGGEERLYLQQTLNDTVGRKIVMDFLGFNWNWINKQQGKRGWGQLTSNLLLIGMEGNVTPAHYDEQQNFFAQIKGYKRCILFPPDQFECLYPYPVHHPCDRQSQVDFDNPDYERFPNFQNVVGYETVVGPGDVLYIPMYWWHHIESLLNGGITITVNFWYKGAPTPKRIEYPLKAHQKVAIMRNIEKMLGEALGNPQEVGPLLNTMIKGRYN

`O=C1N(c2ccc(-c3ccccc3)cc2)C(=O)C2(CCNCC2)N1c1ncccn1` [Compound 10]: the IC50 in test [1] (setting [6]) and in test [2] (setting [7]) was greater than 25000 nM in each case.
For the molecule `Cc1cccnc1CN1CCC2(CC1)C(=O)N(c1ccc(-c3ccccc3)cc1)C(=O)N2c1ncccn1` [Compound 11], in test [3], the “KDM4A inhibition (in words)” value is “weak”.
With `O=C1N(c2ccc(-c3ccccc3)cc2)C(=O)C2(CCN(Cc3cccs3)CC2)N1c1ncccn1` [Compound 12], the IC50 in test [1] (setting [6]) and in test [2] (setting [7]) was greater than 25000 nM each time. Moreover, the “tPHD2 inhibition (in words)” value in test [1] was “inactive”.
`O=C1N(c2ccc(-c3ccccc3)cc2)C(=O)C2(CCN(Cc3ccccc3O)CC2)N1c1ncccn1` [Compound 13]: in test [1], the IC50 is greater than 25000 nM and the “tPHD2 inhibition (in words)” value is “inactive”. In test [2], this molecule came in with an IC50 greater than 25000 nM.
Take `Cn1ccnc1CN1CCC2(CC1)C(=O)N(c1ccc(-c3ccccc3)cc1)C(=O)N2c1ncccn1` [Compound 14]: in test [1], the IC50 came to 143 ± 97 nM and the “tPHD2 inhibition (in words)” value is “maintained potent inhibition”. Besides, in test [2], 49 ± 5 nM corresponded to half-maximal inhibition (IC50). In test [3], the “KDM4A inhibition (in words)” value is recorded as “weak”.
With `O=C1N(c2ccc(-c3ccccc3)cc2)C(=O)C2(CCN(Cc3ncc[nH]3)CC2)N1c1ncccn1` [Compound 15], the IC50 was found to be 215 ± 19 nM in test [1] (setting [6]) and 70 ± 21 nM in test [2] (setting [7]). In addition, in test [1], the “tPHD2 inhibition (in words)” value is “maintained potent inhibition”.
Consider `COc1cccc(CN2CCC3(CC2)C(=O)N(c2ccc(-c4ccccc4)cc2)C(=O)N3c2ncccn2)n1` [Compound 16], for which the IC50 in test [1] (setting [6]) stood at 1210 ± 226 nM; in test [2] (setting [7]), 905 ± 417 nM.
Take `Cc1cccnc1CN1CCC2(CC1)NC(=O)N(c1ccc(-c3ccccc3)cc1)C2=O` [Compound 23]: the IC50 in test [4] was 1050 ± 40 nM.
On to `Cn1ccnc1CN1CCC2(CC1)NC(=O)N(c1ccc(-c3ccccc3)cc1)C2=O` [Compound 24], for which the IC50 turned out to be 151 ± 35 nM in test [1] (setting [6]), 63 ± 16 nM in test [2] (setting [7]) and 219 ± 25 nM in test [4].
`COc1ccnc(N2C(=O)N(c3ccc(-c4ccccc4)cc3)C(=O)C23CCN(Cc2ncccc2C)CC3)n1` [Compound 26]: the IC50 in test [1] (setting [6]) was 289 ± 11 nM; in test [2] (setting [7]), 55 ± 15 nM. Also, the “FIH inhibition (in words)” value in test [5] is “weak”.
Consider `Cc1cccnc1CN1CCC2(CC1)C(=O)N(c1ccc(-c3ccccc3)cc1)C(=O)N2c1cc(C(=O)O)ccn1` [Compound 27], for which the IC50 amounted to 380 ± 64 nM in test [1] (setting [6]) and 94 ± 32 nM in test [2] (setting [7]).
